Laboratory results from patent publication US11028051B2, “Tetrahydroquinoline-based bromodomain inhibitors” (St. Jude Children's Research Hospital, priority 2016, dated 2021).

Experiments:
BRD2-BD1 [1] = biological target: T1, BRD2-BD1 (Homo sapiens (Human), UniProt P25440); assay: competitive TR-FRET assay, BET-BD with acetylated peptide ligand; format: binding; conditions: BRD2-BD1; Table 11 additional modifications; read-out: 2.1 EC50
Protocol: (§1) Inhibitor potency was determined using a competitive TR-FRET assay as detailed herein, measuring interaction of the respective BET-BD with an acetylated peptide ligand (Table 2).
Target sequence in this assay (P25440 74-180): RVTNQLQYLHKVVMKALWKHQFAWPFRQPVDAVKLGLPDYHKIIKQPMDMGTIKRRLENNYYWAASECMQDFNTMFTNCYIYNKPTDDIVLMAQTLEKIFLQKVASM

BRD2-BD2 = BRD2-BD2 (Homo sapiens (Human), UniProt P25440); assay: as above; format: binding; conditions: for EC50: BRD2-BD2, Table 11 additional modifications, read-out: 2.2 EC50; for 2.1/2.2: ratio of BRD2-BD1 EC50 to BRD2-BD2 EC50 (selectivity)
Sequence of BRD2-BD2 (P25440 344-453): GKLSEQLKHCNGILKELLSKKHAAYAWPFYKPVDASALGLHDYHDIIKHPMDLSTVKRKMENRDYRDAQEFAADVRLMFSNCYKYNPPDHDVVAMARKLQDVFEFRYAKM
Protocol: as §1

BRD3-BD1 = BRD3-BD1 (Homo sapiens (Human), UniProt Q15059); assay: as above; format: binding; conditions: BRD3-BD1; Table 11 additional modifications; read-out: 3.1 EC50
Sequence of BRD3-BD1 (Q15059 34-140): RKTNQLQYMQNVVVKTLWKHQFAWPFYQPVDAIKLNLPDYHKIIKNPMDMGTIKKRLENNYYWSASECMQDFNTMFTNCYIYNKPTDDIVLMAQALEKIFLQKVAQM
Protocol: as §1

BRD4-BD1 = BRD4-BD1 (Homo sapiens (Human), UniProt O60885); assay: as above; format: binding; conditions: for EC50: BRD4-BD1, Table 11 additional modifications, read-out: 4.1 EC50
Protocol: as §1

BRD4-BD2 = BRD4-BD2 (Homo sapiens (Human), UniProt O60885); assay: as above; format: binding; conditions: for EC50: BRD4-BD2, Table 11 additional modifications, read-out: 4.2 EC50
Protocol: as §1

BRDT = BRDT (Homo sapiens, UniProt Q58F21); assay: as above; format: binding; conditions: BRDT; Table 11 additional modifications; read-out: BRDT EC50
Protocol: as §1

BRD2-BD1 [2] = biological target: T1, BRD2-BD1; assay: isothermal titration calorimetry analysis of binding; conditions: ITC, BRD2-BD1
Protocol: b. Isothermal Titration Calorimetry Analysis of Binding to Brd2-BD1 and Brd2-BD2
Binding of compounds to BRD2 was monitored using an ITC200 (Microcal, Piscataway, N.J.). Either Brd2.1 (74-194) or Brd2.2 (348-455) was dialyzed overnight into a solution containing 50 mM HEPES, pH 7.0 and 150 mM NaCl at 15° C. Enzyme concentrations were determined after dialysis by absorbance at 280 nm using a molar extinction coefficient (ε280) of 25,565 M^−1 cm^−1 (2.1) or 16,055 M^−1 cm^−1 (2.2). Enzyme was diluted in dialysis buffer and 39.6 μL was loaded into the syringe. Compounds were dissolved in the same dialysis buffer and loaded in the cell to a volume of 204 μL. Injections were carried out by serial injections of enzyme; first, 1 injection of 1 μL, followed by 19 incremental injections of 2 μL, at 120 second intervals. Data from the first injection was excluded, due to pre-equilibration mixing between the contents of cell and syringe at the syringe tip. Peak areas were integrated, normalized, and then fitted by non-linear regression using the independent sites model in Origin™ (version 2.3.6, Microcal, Piscataway, N.J.).
Target sequence in this assay (P25440 74-194): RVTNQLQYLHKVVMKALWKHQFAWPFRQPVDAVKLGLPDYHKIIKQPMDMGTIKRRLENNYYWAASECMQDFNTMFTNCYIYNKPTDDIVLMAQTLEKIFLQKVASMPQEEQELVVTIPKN

[3] = test system: c-Myc expression in HDMB03 cells; assay: c-Myc expression inhibition, high content microscopy (HCM); format: cell-based, human; conditions: Homo sapiens, HD-MB03, HDMB03 cells; read-out: c-Myc expression EC50
[4] = Table 2, inhibitor potency by TR-FRET

Compound | EC50 (BRD2-BD1 [1]) [nM] | EC50 (BRD2-BD2) [nM] | 2.1/2.2 (BRD2-BD2) | EC50 (BRD3-BD1) [nM] | EC50 (BRD4-BD1) [nM] | EC50 (BRD4-BD2) [nM] | EC50 (BRDT) [nM] | IC50 (BRD4-BD1; [4]) [nM] | IC50 (BRD4-BD2; [4]) [nM] | ΔG (BRD2-BD1 [2]) [kcal/mol] | −TΔS (BRD2-BD1 [2]) [kcal/mol] | EC50 [3] [nM]
CC(=O)Nc1cccc(-c2ccc3c(c2)[C@H](N)C[C@H](C)N3C(C)=O)c1 [compound 9] | 12000 | 14000 | 0.86 | 10000 | 47000 | 15000 | 10000 | – | – | – | – | –
CC(=O)Nc1cccc(-c2ccc3c(c2)[C@H](Nc2ccc(N(C)C(C)=O)cc2)C[C@H](C)N3C(C)=O)c1 [compound 11] | 3200 | 200 | 16 | 1600 | 3400 | 51000 | 4300 | – | – | – | – | –
CC(=O)Nc1cccc(-c2ccc3c(c2)[C@H](Nc2ccc4c(c2)COC4=O)C[C@H](C)N3C(C)=O)c1 [compound 12] | 930 | 30 | 31 | 590 | 1500 | 40 | 1800 | – | – | – | – | –
CC(=O)Nc1cccc(-c2ccc3c(c2)[C@H](Nc2ccc4c(c2)OCO4)C[C@H](C)N3C(C)=O)c1 [compound 14] | 1800 | 90 | 20 | 1190 | 2000 | 60 | 2600 | – | – | – | – | –
COC(=O)c1ccccc1N[C@@H]1C[C@H](C)N(C(C)=O)c2ccc(-c3cccc(NC(C)=O)c3)cc21 [compound 15] | 7000 | 110 | 64 | 10000 | 7000 | 100 | 700 | – | – | – | – | –
CC(=O)Nc1cccc(-c2ccc3c(c2)[C@H](Nc2cncnc2)C[C@H](C)N3C(C)=O)c1 [compound 16] | 9800 | 980 | 10 | 6400 | 13000 | 1900 | 17000 | – | – | – | – | –
COc1ccc(N[C@@H]2C[C@H](C)N(C(C)=O)c3ccc(-c4cccc(NC(C)=O)c4)cc32)cc1 [compound 18] | 1900 | 110 | 4.8 | 1500 | 2300 | 80 | 2600 | – | – | – | – | –
COc1cccc(N[C@@H]2C[C@H](C)N(C(C)=O)c3ccc(-c4cccc(NC(C)=O)c4)cc32)c1 [compound 21] | 930 | 30 | 31 | 590 | 1500 | 40 | 1800 | – | – | – | – | –
CC(=O)Nc1cccc(-c2ccc3c(c2)[C@H](Nc2cccc(OC(F)(F)F)c2)C[C@H](C)N3C(C)=O)c1 [compound 22] | 26000 | 790 | 33 | 10000 | 27000 | 1900 | 10000 | – | – | – | – | –
CNCc1ccc(N[C@@H]2C[C@H](C)N(C(C)=O)c3ccc(-c4cccc(NC(C)=O)c4)cc32)cc1 [compound 23] | 2300 | 100 | 23 | 710 | 1500 | 320 | 2100 | – | – | – | – | –
CC(=O)Nc1cccc(-c2ccc3c(c2)[C@H](NC2CCOCC2)C[C@H](C)N3C(C)=O)c1 [compound 36] | 3200 | 3000 | 1.1 | 1400 | 2400 | 5400 | 7000 | – | – | – | – | –
CC(=O)Nc1cccc(-c2ccc3c(c2)[C@H](NC2CCCCCC2)C[C@H](C)N3C(C)=O)c1 [compound 37] | 2400 | 620 | 3.9 | 1200 | 1500 | 540 | 2800 | – | – | – | – | –
CC(=O)Nc1cccc(-c2ccc3c(c2)[C@H](NC2CCCC2)C[C@H](C)N3C(C)=O)c1 [compound 38] | 5500 | 2400 | 2.3 | 3700 | 6800 | 2600 | 11000 | – | – | – | – | –
CC(=O)N1c2ccc(-c3ccco3)cc2[C@H](NC(=O)OC(C)C)C[C@@H]1C [compound 50] | – | – | – | – | – | – | – | 4600 | 2600 | -7.47 | -0.20 | 330
CC(=O)N1c2ccc(-c3coc4ccccc34)cc2[C@H](NC(=O)OC(C)C)C[C@@H]1C [compound 90] | 11000 | 3500 | 0.84 | 3400 | 8700 | 56000 | 14000 | – | – | – | – | –
CC(=O)N1c2ccc(-c3c[nH]c4ccccc34)cc2[C@H](NC(=O)OC(C)C)C[C@@H]1C [compound 91] | 1300 | 1100 | 0.032 | 1100 | 860 | 37000 | 4900 | – | – | – | – | –
CC(=O)N1c2ccc(-c3cc4ccccc4[nH]3)cc2[C@H](NC(=O)OC(C)C)C[C@@H]1C [compound 92] | 1700 | 1400 | 5.1 | 410 | 1300 | 1300 | 3000 | – | – | – | – | –
CC(=O)Nc1cccc(-c2ccc3c(c2)[C@H](Nc2ccc(N(C)C)cc2)C[C@H](C)N3C(C)=O)c1 [compound 118] | 3600 | 110 | 10 | 2100 | 5100 | 210 | 1600 | – | – | – | – | –
CC(=O)Nc1cccc(-c2ccc3c(c2)[C@H](Nc2ccc([N+](=O)[O-])cc2)C[C@H](C)N3C(C)=O)c1 [compound 127] | 2300 | 110 | 17 | 1200 | 2900 | 60 | 4100 | – | – | – | – | –
CC(=O)Nc1cccc(-c2ccc3c(c2)[C@H](Nc2ccc(OC(F)(F)F)cc2)C[C@H](C)N3C(C)=O)c1 [compound 132] | 20000 | 370 | 16 | 10000 | 17000 | 540 | 10000 | – | – | – | – | –
CC(=O)N1c2ccc(-c3cccc(NC(=O)OC(C)(C)C)c3)cc2[C@H](Nc2ccc(Cl)cc2)C[C@@H]1C [compound 134] | 21000 | 590 | 36 | 10000 | 21000 | 900 | 10000 | – | – | – | – | –
